Data as given in PubChem BioAssay (NCI).
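96-well plates; 48 h exposure; 5 concentrations. Endpoints by linear interpolation between flanking doses. Not reached: highest tested concentration assigned. TGI denotes the concentration required for complete inhibition of growth.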

Tests used:
Experiment in all cases: NCI-60 cell line screen, 48 h
BT-549 breast = system: BT-549 breast
NCI-H522 lung = system: NCI-H522 lung
NCI-H460 lung = system: NCI-H460 lung
HCT-15 colon = system: HCT-15 colon
NCI-H226 lung = system: NCI-H226 lung
SK-OV-3 ovarian = system: SK-OV-3 ovarian
HCT-116 colon = system: HCT-116 colon
RPMI-8226 leukemia = system: RPMI-8226 leukemia
MDA-MB-231 breast = system: MDA-MB-231 breast
HCC-2998 colon = system: HCC-2998 colon
MDA-MB-435 = system: MDA-MB-435
UACC-62 melanoma = system: UACC-62 melanoma
HT29 colon = system: HT29 colon
SNB-75 CNS = system: SNB-75 CNS
MOLT-4 leukemia = system: MOLT-4 leukemia
OVCAR-8 ovarian = system: OVCAR-8 ovarian
OVCAR-4 ovarian = system: OVCAR-4 ovarian
SN12C renal = system: SN12C renal
COLO 205 colon = system: COLO 205 colon
PC-3 prostate = system: PC-3 prostate
HL-60(TB) leukemia = system: HL-60(TB) leukemia
EKVX NSCLC = system: EKVX NSCLC
SF-295 CNS = system: SF-295 CNS
SK-MEL-2 melanoma = system: SK-MEL-2 melanoma
CAKI-1 renal = system: CAKI-1 renal
NCI-H23 lung = system: NCI-H23 lung
LOX IMVI melanoma = system: LOX IMVI melanoma
A549 NSCLC = system: A549 NSCLC
RXF 393 renal = system: RXF 393 renal
MDA-N = system: MDA-N
SK-MEL-28 melanoma = system: SK-MEL-28 melanoma
SF-268 CNS = system: SF-268 CNS
SR leukemia = system: SR leukemia
OVCAR-3 ovarian = system: OVCAR-3 ovarian
DU-145 prostate = system: DU-145 prostate
MALME-3M melanoma = system: MALME-3M melanoma
786-0 renal = system: 786-0 renal
KM12 colon = system: KM12 colon
MCF7 breast = system: MCF7 breast
IGROV1 ovarian = system: IGROV1 ovarian
OVCAR-5 ovarian = system: OVCAR-5 ovarian
HS 578T breast = system: HS 578T breast
A498 renal = system: A498 renal
UO-31 renal = system: UO-31 renal
M14 melanoma = system: M14 melanoma
K-562 leukemia = system: K-562 leukemia
CCRF-CEM leukemia = system: CCRF-CEM leukemia
SNB-19 CNS = system: SNB-19 CNS
SK-MEL-5 melanoma = system: SK-MEL-5 melanoma
ACHN renal = system: ACHN renal
U251 CNS = system: U251 CNS
T-47D breast = system: T-47D breast
HOP-62 NSCLC = system: HOP-62 NSCLC
SW-620 colon = system: SW-620 colon
NCI/ADR-RES ovarian = system: NCI/ADR-RES ovarian
SF-539 CNS = system: SF-539 CNS
HOP-92 NSCLC = system: HOP-92 NSCLC
TK-10 renal = system: TK-10 renal
UACC-257 melanoma = system: UACC-257 melanoma

Measured: TGI

Cn1c2ccccc2n2c3ncccc3c(=S)c(C#N)c12
not listed: SF-539 CNS | HOP-92 NSCLC | TK-10 renal | UACC-257 melanoma
> 100 µM: all other assays above

CCOC(=O)c1cnccc1CC1(C#N)c2ccccc2C=CN1C(=O)c1ccccc1 (configuration not stated)
26.5 µM: MALME-3M melanoma
50.8 µM: MOLT-4 leukemia
79.1 µM: M14 melanoma
89.5 µM: NCI-H460 lung
39.9 µM: IGROV1 ovarian
41.4 µM: SK-MEL-2 melanoma
37.8 µM: SK-MEL-5 melanoma
82 µM: SF-268 CNS
37.2 µM: OVCAR-8 ovarian
75.6 µM: SF-539 CNS
54.8 µM: NCI-H522 lung
52.9 µM: SNB-75 CNS
31.3 µM: KM12 colon
72.9 µM: LOX IMVI melanoma
80.9 µM: UACC-62 melanoma
49.6 µM: K-562 leukemia
91.1 µM: UO-31 renal
97.3 µM: SN12C renal
36 µM: HT29 colon
92.7 µM: SR leukemia
45.8 µM: MDA-N
27.6 µM: RPMI-8226 leukemia
46.4 µM: HS 578T breast
> 100 µM: all other assays above

CCCNc1ncnc2[nH]ncc12
not listed: NCI-H226 lung
> 100 µM: all other assays above
